# Laboratory results taken from ChEMBL document CHEMBL1201862, “PubChem BioAssay data set” (2004).
#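 Assay format: 96-well plates, 48-hour exposure. Here, GI50 denotes the concentration required for 50% inhibition of growth.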 Calls of active or inactive are those of the source. No stated cut-off is given here; in the data, active = GI50 up to about 1.1 µM and inactive = higher.
# Legend:
# Experiment in all cases: NCI anticancer screen, dose series, 48 h
# U-251 = test system: U-251
# MOLT-4 = test system: MOLT-4
# CCRF-CEM = test system: CCRF-CEM
# HOP-92 = test system: HOP-92
# NCI/ADR-RES = test system: NCI/ADR-RES
# SW-620 = test system: SW-620
# HT-29 = test system: HT-29
# NCI-H226 = test system: NCI-H226
# PC-3 = test system: PC-3
# COLO 205 = test system: COLO 205
# RPMI-8226 = test system: RPMI-8226
# CAKI-1 = test system: CAKI-1
# HCT-15 = test system: HCT-15
# HCT-116 = test system: HCT-116
# OVCAR-8 = test system: OVCAR-8
# K562 = test system: K562
# MDA-N = test system: MDA-N
# SNB-19 = test system: SNB-19
# HL-60 = test system: HL-60
SMILES,GI50 (U-251),GI50 (MOLT-4),GI50 (CCRF-CEM),GI50 (HOP-92),GI50 (NCI/ADR-RES),GI50 (SW-620),GI50 (HT-29),GI50 (NCI-H226),GI50 (PC-3),GI50 (COLO 205),GI50 (RPMI-8226),GI50 (CAKI-1),GI50 (HCT-15) [µM],GI50 (HCT-116),GI50 (OVCAR-8),GI50 (K562),GI50 (MDA-N),GI50 (SNB-19),GI50 (HL-60)
CSc1c(C)[n+]([O-])c2cc(Cl)c(Cl)cc2[n+]1[O-],21.9 µM (inactive),2.38 µM (inactive),2.32 µM (inactive),16.2 µM (inactive),17.8 µM (inactive),16.8 µM (inactive),18.1 µM (inactive),13.1 µM (inactive),18.6 µM (inactive),15.5 µM (inactive),9.73 µM (inactive),18.2 µM (inactive),17,16.4 µM (inactive),16.6 µM (inactive),3.32 µM (inactive),16 µM (inactive),> 86.9 µM (inactive),–
COC(=O)CN(CC1O[C@@H]2OC(C)(C)O[C@@H]2C1NC(C)=O)C(=O)OCc1ccccc1 (some centres not stated),> 100 µM (inactive),> 100 µM (inactive),–,> 100 µM (inactive),> 100 µM (inactive),> 100 µM (inactive),> 100 µM (inactive),> 100 µM (inactive),> 100 µM (inactive),> 100 µM (inactive),> 100 µM (inactive),> 100 µM (inactive),> 100,> 100 µM (inactive),> 100 µM (inactive),> 100 µM (inactive),> 100 µM (inactive),> 100 µM (inactive),> 100 µM (inactive)
O=C1C[C@@H](c2ccccc2)NCCCCN(O)CCCN1,> 100 µM (inactive),> 100 µM (inactive),> 100 µM (inactive),> 100 µM (inactive),> 100 µM (inactive),> 100 µM (inactive),> 100 µM (inactive),> 100 µM (inactive),> 100 µM (inactive),> 100 µM (inactive),22.3 µM (inactive),> 100 µM (inactive),> 100,> 100 µM (inactive),> 100 µM (inactive),–,> 100 µM (inactive),28.4 µM (inactive),> 100 µM (inactive)
CC(=O)O[C@H]1CC[C@@]2(C)C(=CC[C@@H]3[C@@H]2CC[C@]2(C)c4c(C)nn(-c5ccccc5)c4C[C@@H]32)C1,20.7 µM (inactive),13.2 µM (inactive),11.2 µM (inactive),22.2 µM (inactive),34.9 µM (inactive),33.5 µM (inactive),11.5 µM (inactive),36.6 µM (inactive),26.7 µM (inactive),15.5 µM (inactive),–,20.9 µM (inactive),37.1,31 µM (inactive),40.7 µM (inactive),2.65 µM (inactive),23.1 µM (inactive),31 µM (inactive),24.2 µM (inactive)
NNC(=O)Cc1cccnc1,> 100 µM (inactive),> 100 µM (inactive),> 100 µM (inactive),> 100 µM (inactive),> 100 µM (inactive),> 100 µM (inactive),> 100 µM (inactive),–,> 100 µM (inactive),> 100 µM (inactive),> 100 µM (inactive),> 100 µM (inactive),> 100,> 100 µM (inactive),> 100 µM (inactive),> 100 µM (inactive),> 100 µM (inactive),> 100 µM (inactive),> 100 µM (inactive)
Cc1ccc2nc(Cl)c(/C=N/N3C(=O)/C(=C/c4ccccc4S)N=C3c3ccccc3)cc2c1,28.1 µM (inactive),1.85 µM (inactive),15.5 µM (inactive),73.6 µM (inactive),22.9 µM (inactive),39.2 µM (inactive),42.8 µM (inactive),–,38.3 µM (inactive),28.2 µM (inactive),21.4 µM (inactive),44.6 µM (inactive),37.8,30.1 µM (inactive),47.8 µM (inactive),11.7 µM (inactive),17 µM (inactive),52.8 µM (inactive),15.5 µM (inactive)
CC[C@@]1(CCC(=O)NCCc2c[nH]c3ccccc23)CCC(=O)N2CCc3c([nH]c4ccccc34)[C@H]21,29.8 µM (inactive),3.71 µM (inactive),7.33 µM (inactive),79.3 µM (inactive),4.57 µM (inactive),25.8 µM (inactive),–,20 µM (inactive),5.56 µM (inactive),24.2 µM (inactive),3.08 µM (inactive),> 100 µM (inactive),20,11.8 µM (inactive),–,7.45 µM (inactive),12.6 µM (inactive),9.71 µM (inactive),–
O=S1(=O)OCCOS(=O)(=O)C1S(=O)(=O)c1cccc2ccccc12,> 100 µM (inactive),> 100 µM (inactive),> 100 µM (inactive),> 100 µM (inactive),> 100 µM (inactive),70.5 µM (inactive),52.7 µM (inactive),–,42.3 µM (inactive),> 100 µM (inactive),> 100 µM (inactive),> 100 µM (inactive),> 100,24 µM (inactive),> 100 µM (inactive),41.4 µM (inactive),> 100 µM (inactive),> 10 µM (inactive),68.5 µM (inactive)
